Where two headings read alike, the source gives them in different places.
Assay: Plasma pharmacokinetics, 7 once-daily oral doses, healthy volunteers
Format: in vivo, human
Conditions: male, human, plasma, oral
Method: After 28 days of screening, the subjects were studied in sequential cohorts of 6 subjects each. The study was conducted for 17 days. […] After the dose, subjects continued to fast for additional 4 hours, water was allowed ad libitum with the exception of 1 hour prior and 1-hour post dose.
The plasma and CSF samples were analyzed, by validated LC/MS-MS methods. PK analysis was conducted based on PK/PP Population: Cmax, AUC0-t, AUC0-24, AUC0-∞, Tmax, Cavg, CL/F, Cmin, t1/2, Kel, Vd (V/F; Vd/F), and Vss/F. Model-independent plasma PK parameters (Cmax, Tmax, t1/2, AUC0-t, AUC0-24, AUC0-∞, Cavg, CL/F, Vss/F, Vd/F), after the first dose (Day 1) and last dose (Day 7), Cmin on Days 2-7) was listed by subject and summarized by study cohort. In addition to the descriptive statistics listed above, geometric means was reported for the pivotal PK endpoints (CL/F, Vss/F, Vd/F, Cmin, Cavg, AUC0-t, AUC0-24, AUC0-∞, and Cmax). For CSF, PK parameters (Cmax, Tmax, t1/2, AUC0-t, AUC0-24, Cmin, Cavg, CL/F, Vss/F) was listed by subject and summarized by cohort. Ratios of CSF: plasma concentration at each time point was listed by subject and summarized by study cohort.
Forty-one healthy adult male volunteers aged 18 to 45 with body mass indexes (BMI)≥18 to ≤30 Kg/m^2 and total body weight >50 kg (110 lb) were screened in order to enroll 19 subjects with an average age of 34.2 years (range 21.5-45.6 years) into this study Six participants were randomly assigned to the 48 and 192 mg cohorts, and seven participants were assigned to the 384 mg cohort. After an overnight fast, participants received once daily doses of vodobatinib as capsules for 7 days. Serial PK blood samples to measure vodobatinib plasma concentrations were collected at pre-dose and at 0.25, 0.5, 1, 1.5, 2, 2.5, 3, 4, 6, 8, 12, 16 and 24 h post-dose after the first dose on Day 1 and the last dose on day 7. Additional PK samples prior to the morning doses were taken on Days 3-6. On the morning of Day 7, prior to dosing, an indwelling intrathecal catheter was inserted in the lumbar region (L3-L5). Serial CSF samples were collected through the catheter connected via peristaltic pump to a fraction collector. At each designated CSF collection time point, 8 mL of CSF was collected at a flow rate of 0.5 mL/min over a 16-min period at pre-dose, and 0.5, 1.0, 1.5, 2, 2.5, 3, 4, 6, 8, 12 and 24 h post-dose. The first 2 mL of CSF was discarded, and the remaining 6 mL was used for the vodobatinib assay. The occurrence of treatment-emergent adverse events (TEAEs) and serious AEs (SAEs) reported through the completion of study were collected.

Question: For `Cc1ccc(C(=O)NNC(=O)c2c(C)cccc2Cl)cc1C#Cc1cnc2ccccc2c1` [N′-(2-chloro-6-methylbenzoyl)-4-methyl-3-[2-(3-quinolyl)ethynyl]-benzohydrazide], which AUC(0-t) (192 mg, Day 1, plasma, healthy volunteers, read-out: AUC0-24 Min, Max) is on record?
Answer: The AUC(0-t) was 22400 to 45600 ng·h/mL.

Question: What about the Cmax (192 mg, Day 1, plasma, healthy volunteers, read-out: Cmax AM) of the same compound?
Answer: Its Cmax is 3780 ng/mL.

Question: And the Cmax (192 mg, Day 1, plasma, healthy volunteers, read-out: Cmax GM)?
Answer: Its Cmax is 3550 ng/mL.

Question: And the Cmax (192 mg, Day 1, plasma, healthy volunteers, read-out: Cmax Median)?
Answer: The Cmax was 3180 ng/mL.

Question: What about the Cmax (192 mg, Day 1, plasma, healthy volunteers, read-out: Cmax Min, Max) of the same compound?
Answer: Its Cmax is 2740 to 7190 ng/mL.

Question: What about the Tmax (192 mg, Day 1, plasma, healthy volunteers, read-out: Tmax Median) of the same compound?
Answer: Its Tmax is 3.5 h.

Question: And the Tmax (192 mg, Day 1, plasma, healthy volunteers, read-out: Tmax Min, Max)?
Answer: The Tmax was 1.62 to 4 h.

Question: And the Cmax (192 mg, Day 7, plasma, Healthy Subjects, Table 10, read-out: Cmax Mean)?
Answer: Its Cmax is 5380 ng/mL.

Question: And the Tmax (192 mg, Day 7, plasma, Healthy Subjects, Table 10, read-out: Tmax median (range))?
Answer: The Tmax was 4 h.

Question: What about the AUC(0-t) (192 mg, Day 7, plasma, Healthy Subjects, read-out: AUC0-24 Mean) of the same compound?
Answer: The AUC(0-t) was 44100 ng·h/mL.

Question: And the AUC(0-t) (192 mg, Day 7, plasma, healthy volunteers, read-out: AUC0-24 AM)?
Answer: Its AUC(0-t) is 44100 ng·h/mL.

Question: What about the AUC(0-t) (192 mg, Day 7, plasma, healthy volunteers, read-out: AUC0-24 GM) of the same compound?
Answer: Its AUC(0-t) is 39100 ng·h/mL.

Question: And the AUC(0-t) (192 mg, Day 7, plasma, healthy volunteers, read-out: AUC0-24 Median)?
Answer: The AUC(0-t) was 40100 ng·h/mL.

Question: What about the AUC(0-t) (192 mg, Day 7, plasma, healthy volunteers, read-out: AUC0-24 Min, Max) of the same compound?
Answer: Its AUC(0-t) is 20700 to 91500 ng·h/mL.

Question: What about the Cmax (192 mg, Day 7, plasma, healthy volunteers, read-out: Cmax AM) of the same compound?
Answer: The Cmax was 5380 ng/mL.

Question: What about the Cmax (192 mg, Day 7, plasma, healthy volunteers, read-out: Cmax GM) of the same compound?
Answer: Its Cmax is 5020 ng/mL.

Question: What about the Cmax (192 mg, Day 7, plasma, healthy volunteers, read-out: Cmax Median) of the same compound?
Answer: Its Cmax is 4690 ng/mL.

Question: What about the Cmax (192 mg, Day 7, plasma, healthy volunteers, read-out: Cmax Min, Max) of the same compound?
Answer: The Cmax was 3120 to 10100 ng/mL.

Question: And the Tmax (192 mg, Day 7, plasma, healthy volunteers, read-out: Tmax Median)?
Answer: The Tmax was 4 h.

Question: And the Tmax (192 mg, Day 7, plasma, healthy volunteers, read-out: Tmax Min, Max)?
Answer: Its Tmax is 4.01 to 4.08 h.

Question: What about the Cmax (384 mg, Day 1, plasma, Healthy Subjects, Table 10, read-out: Cmax Mean) of the same compound?
Answer: Its Cmax is 6630 ng/mL.

Question: And the Tmax (384 mg, Day 1, plasma, Healthy Subjects, Table 10, read-out: Tmax median)?
Answer: Its Tmax is 4 h.

Question: And the AUC(0-t) (384 mg, Day 1, plasma, Healthy Subjects, read-out: AUC0-24 Mean)?
Answer: Its AUC(0-t) is 47600 ng·h/mL.

Question: What about the AUC(0-t) (384 mg, Day 1, plasma, healthy volunteers, read-out: AUC0-24 AM) of the same compound?
Answer: The AUC(0-t) was 47600 ng·h/mL.

Question: And the AUC(0-t) (384 mg, Day 1, plasma, healthy volunteers, read-out: AUC0-24 GM)?
Answer: The AUC(0-t) was 35500 ng·h/mL.

Question: What about the AUC(0-t) (384 mg, Day 1, plasma, healthy volunteers, read-out: AUC0-24 Median) of the same compound?
Answer: The AUC(0-t) was 41900 ng·h/mL.

Question: And the AUC(0-t) (384 mg, Day 1, plasma, healthy volunteers, read-out: AUC0-24 Min, Max)?
Answer: Its AUC(0-t) is 6640 to 105000 ng·h/mL.

Question: What about the Cmax (384 mg, Day 1, plasma, healthy volunteers, read-out: Cmax AM) of the same compound?
Answer: The Cmax was 6630 ng/mL.

Question: What about the Cmax (384 mg, Day 1, plasma, healthy volunteers, read-out: Cmax GM) of the same compound?
Answer: The Cmax was 5390 ng/mL.

Question: What about the Cmax (384 mg, Day 1, plasma, healthy volunteers, read-out: Cmax Median) of the same compound?
Answer: The Cmax was 5580 ng/mL.

Question: And the Cmax (384 mg, Day 1, plasma, healthy volunteers, read-out: Cmax Min, Max)?
Answer: The Cmax was 1490 to 13700 ng/mL.

Question: What about the Tmax (384 mg, Day 1, plasma, healthy volunteers, read-out: Tmax Median) of the same compound?
Answer: Its Tmax is 4 h.

Question: What about the Tmax (384 mg, Day 1, plasma, healthy volunteers, read-out: Tmax Min, Max) of the same compound?
Answer: The Tmax was 1.5 to 6 h.

Question: And the Cmax (384 mg, Day 7, plasma, Healthy Subjects, Table 10, read-out: Cmax Mean)?
Answer: The Cmax was 7850 ng/mL.

Question: And the Tmax (384 mg, Day 7, plasma, Healthy Subjects, Table 10, read-out: Tmax median (range))?
Answer: Its Tmax is 3.5 h.

Question: And the AUC(0-t) (384 mg, Day 7, plasma, Healthy Subjects, read-out: AUC0-24 Mean)?
Answer: Its AUC(0-t) is 54900 ng·h/mL.

Question: And the AUC(0-t) (384 mg, Day 7, plasma, healthy volunteers, read-out: AUC0-24 AM)?
Answer: Its AUC(0-t) is 54900 ng·h/mL.

Question: And the AUC(0-t) (384 mg, Day 7, plasma, healthy volunteers, read-out: AUC0-24 GM)?
Answer: Its AUC(0-t) is 42100 ng·h/mL.

Question: And the AUC(0-t) (384 mg, Day 7, plasma, healthy volunteers, read-out: AUC0-24 Median)?
Answer: The AUC(0-t) was 50000 ng·h/mL.

Question: And the AUC(0-t) (384 mg, Day 7, plasma, healthy volunteers, read-out: AUC0-24 Min, Max)?
Answer: Its AUC(0-t) is 11500 to 125000 ng·h/mL.

Question: What about the Cmax (384 mg, Day 7, plasma, healthy volunteers, read-out: Cmax AM) of the same compound?
Answer: Its Cmax is 7880 ng/mL.

Question: What about the Cmax (384 mg, Day 7, plasma, healthy volunteers, read-out: Cmax GM) of the same compound?
Answer: The Cmax was 6650 ng/mL.

Question: And the Cmax (384 mg, Day 7, plasma, healthy volunteers, read-out: Cmax Median)?
Answer: Its Cmax is 6500 ng/mL.

Question: What about the Cmax (384 mg, Day 7, plasma, healthy volunteers, read-out: Cmax Min, Max) of the same compound?
Answer: Its Cmax is 2870 to 17900 ng/mL.

Question: What about the Tmax (384 mg, Day 7, plasma, healthy volunteers, read-out: Tmax Median) of the same compound?
Answer: Its Tmax is 3.5 h.

Question: And the Tmax (384 mg, Day 7, plasma, healthy volunteers, read-out: Tmax Min, Max)?
Answer: Its Tmax is 2.52 to 4.03 h.
